Experimental data taken from EPA's ToxValDB 9.5 (doi:10.2903/j.efsa.2005.25r).
Converted amounts (≈) assume the structure as drawn.

Columns and labels:
[1] = system: Oncorhynchus mykiss; conditions: chronic/long-term; duration: 28 days; mortality
[2] = system: Colinus virginianus
[3] = system: Apis mellifera; conditions: acute
[4] = system: Coturnix coturnix; conditions: acute; duration: 5 days; oral; diet; mortality
[5] = system: Phasianus sp.; conditions: short-term; duration: 5 days; oral; feed; mortality
[6] = system: Daphnia magna; conditions: chronic/long-term; duration: 21 days; growth
[7] = system: Pontoscolex corethrurus
[8] = system: Cyprinodon variegatus; conditions: mortality
[9] = system: Rattus norvegicus
[10] = system: Hyalella azteca; conditions: chronic/long-term; duration: 21 days; mortality

In the case of `CN(C)C(=O)Nc1ccc(Cl)c(Cl)c1` [Diuron], the NOEC [1] is reported as 0.41 mg/L, the LC50 ([2]; acute, duration: 5 days, oral, diet, mortality) is reported as 346 mg/kg-day and the LD50 ([2]; acute, duration: 14 days, oral, diet, mortality) is reported as 1100 mg/kg. It also gave an NOEC ([2]; reproduction developmental) of 24.1 mg/kg-day, an LEL ([3]; dermal) of over 100 µg/piece and an LEL ([3]; oral, unspecified) of over 100 µg/piece. For the same compound, the LC50 [4] was over 5000 mg/kg, the LC50 [5] was over 5000 mg/kg and the NOEC [6] was 0.096 mg/L. It also gave an LC50 ([7]; acute, mortality) of over 798 mg/kg, an NOEC ([7]; chronic/long-term) of 14.4 mg/kg and an LC50 ([8]; acute, duration: 96 hours) of 6.7 mg/L (≈ 28.7 µM). For the same compound, the NOEC ([8]; chronic/long-term, duration: 32 days) was 1.7 mg/L, the LD50 ([9]; acute, mortality) was 2000 mg/kg and the NOAEL ([9]; chronic) was 80 mg/kg-day. It also gave an LOAEL ([9]; chronic, duration: 2 years, F, hematological) of 1.7 mg/kg-day, an NOAEL ([9]; chronic, duration: 6 months, hematological) of 1.6 mg/kg-day and an NOAEL ([9]; chronic, duration: 6 months, oral, hematological) of 0.66 mg/kg-day. The NOEC [10] was 0.06 mg/L.
